The melting point is the temperature, or range, at which the solid turns liquid. What is called IC50 is the point on the concentration scale where inhibition reaches its midpoint. Read a low IC50 as greater potency in that assay.

The target in series [1] is T1, TBK1 (Homo sapiens, UniProt Q9UHD2).
T1 construct: purchased
T1 sequence (Q9UHD2 1-729): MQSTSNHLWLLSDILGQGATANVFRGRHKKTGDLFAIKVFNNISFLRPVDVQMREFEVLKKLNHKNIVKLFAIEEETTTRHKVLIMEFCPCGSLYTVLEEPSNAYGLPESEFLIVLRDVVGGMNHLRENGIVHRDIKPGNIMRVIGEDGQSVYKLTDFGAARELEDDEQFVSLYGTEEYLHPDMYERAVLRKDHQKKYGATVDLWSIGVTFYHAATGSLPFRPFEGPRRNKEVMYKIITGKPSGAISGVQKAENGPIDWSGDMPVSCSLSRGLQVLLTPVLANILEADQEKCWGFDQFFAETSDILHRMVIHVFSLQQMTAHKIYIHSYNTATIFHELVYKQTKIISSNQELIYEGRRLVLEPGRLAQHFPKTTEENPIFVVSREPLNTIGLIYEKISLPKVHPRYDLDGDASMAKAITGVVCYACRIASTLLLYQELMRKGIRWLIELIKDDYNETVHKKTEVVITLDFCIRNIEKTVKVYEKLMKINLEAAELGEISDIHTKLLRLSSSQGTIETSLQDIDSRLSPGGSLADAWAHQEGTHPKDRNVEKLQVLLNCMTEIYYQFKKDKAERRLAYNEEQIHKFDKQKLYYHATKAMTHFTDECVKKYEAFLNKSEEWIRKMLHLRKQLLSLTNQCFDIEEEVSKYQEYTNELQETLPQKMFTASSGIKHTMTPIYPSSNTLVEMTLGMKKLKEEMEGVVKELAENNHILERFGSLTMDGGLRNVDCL
Nature of the series: filter binding kinase assay. It counts as biochemical. As to conditions: derived from % inhibition at 1 μM. As for the experimental part: All kinase assays were carried out using the Multidrop 384 from Thermo-Fisher at room temperature in a total assay volume of 25.5 μl. 15 μl of an enzyme mix comprising enzyme and substrate in buffer are added to the test batch comprising either 0.5 μl of test substance, DMSO control or empty container. Test substances are pre-incubated in the presence of the enzyme and substrate for 5 minutes before the reaction is initiated by addition of 10 μl of ATP (concentration kinase-dependent of […]). The reaction is terminated by addition of 5 μl of orthophosphoric acid (50 mM). The test containers are then transferred onto P81 Unifilter plates by means of a “Packard Harvester” and dried in air. The dry Unifilter plates are sealed after the addition of MicroScint O, and the radioactivity is determined in a Packard Topcount NXT.

In turn, `CC(C)(C)OC(=O)Nc1ncsc1C#Cc1ccc(F)cc1` [Compound A15, tert-butyl N-{5-[2-(4-fluorophenyl)ethynyl]-1,3-thiazol-4-yl}carbamate] had a melting point of 139 to 144 °C.
On to `Nc1ncc(-c2cnn(C3CCNCC3)c2)cc1-c1nc2[nH]c(-c3ccc(F)cc3)cc2s1` [Compound A31], for which the IC50 in series [1] was 10 to 1000 nM.

Values taken from patent US8703961B2, “Thiazole derivatives for the treatment of diseases such as cancer” (Merck Patent GmbH, priority 2009, dated 2014).
